# Experimental data reported in publication PMC3742231 (International Journal of Molecular Sciences, 2013).
# Like-named read-outs stand apart in the source and are kept apart here.
# Assays:
# [1] = cited from earlier work
# CYP2C9 = settings: 0.2, 2 and 20 μM for 48 h
# Protocol: (§1) Freshly isolated human hepatocytes were obtained from the UK Human Tissue Bank (Leicester, UK).
# (§2) Omeprazole (CYP1A2 inducer; 30 μM), phenobarbital (CYP2B6 inducer; 1 mM) and rifampicin (CYP2C9, CYP2C19, and CYP3A4 inducer; 50 μM) dissolved in dimethyl sulfoxide (0.5% v/v final), served as reference inducers.
# CYP1A2 [2] = settings: 0.2, 2 and 20 μM for 48 h
# Protocol: as §1, §2
# CYP3A4 [3] = settings: 20 μM, 48 h
# Protocol: as §1, §2
# CYP2C19 = settings: 0.2, 2 and 20 μM for 48 h
# Protocol: as §1, §2
# CYP enzyme activities = settings: cultured human hepatocytes
# Protocol: as §1, §2
# CYP2B6 = settings: 20 μM, 48 h
# Protocol: as §1, §2
# [4] = Overall safety in the three clinical studies; type: in vivo, human; settings: healthy postmenopausal women, with and without ospemifene
# Description: All experiments with human subjects were based on voluntary informed consent and the clinical study protocols had appropriate ethical and regulatory approval. Subjects were asked to immediately report any significant adverse events (AEs) that occurred during the study; minor AEs were reported at clinic visits. AEs were coded and classified according to the Medical Dictionary for Regulatory Activities.
# CYP2A6 = biological target: T1, CYP2A6 (Homo sapiens, UniProt P11509); test: N-in-one CYP inhibition assay in human liver microsomes
# T1 sequence (P11509 1-494): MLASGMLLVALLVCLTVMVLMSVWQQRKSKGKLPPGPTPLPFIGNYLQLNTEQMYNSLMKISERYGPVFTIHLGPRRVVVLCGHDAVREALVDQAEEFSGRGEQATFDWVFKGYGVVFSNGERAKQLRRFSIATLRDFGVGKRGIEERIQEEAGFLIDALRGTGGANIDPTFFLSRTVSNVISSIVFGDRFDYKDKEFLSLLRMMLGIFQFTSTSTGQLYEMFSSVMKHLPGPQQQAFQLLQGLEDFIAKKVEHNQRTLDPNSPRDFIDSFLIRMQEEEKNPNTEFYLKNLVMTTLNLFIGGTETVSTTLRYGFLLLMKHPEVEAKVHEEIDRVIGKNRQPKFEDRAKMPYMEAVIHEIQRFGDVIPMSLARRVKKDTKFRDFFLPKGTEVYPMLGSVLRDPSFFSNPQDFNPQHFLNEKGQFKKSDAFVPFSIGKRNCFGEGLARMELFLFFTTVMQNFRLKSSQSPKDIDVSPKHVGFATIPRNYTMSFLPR
# Protocol: (§3) Human liver microsomes were prepared and pooled from ten human livers (HL20–24,28–32) as previously described. Human liver samples were obtained from the University Hospital of Oulu as surplus tissue from cadaver kidney transplant donors. The collection of surplus tissue was approved by the Ethics Committee of the Medical Faculty of the University of Oulu, Finland. All donors were Caucasians ranging in age from 21 to 62 years; four were female and six were male. Detailed information on each donor has been published previously. Protein concentrations were measured using the Bradford method.
# (§4) In vitro inhibition of CYP isoforms was first assessed using the N-in-one approach (also called the cocktail approach). CYP-selective substrates and reactions are listed in Table 1; concentrations were roughly at or below the respective Michaelis-Menten coefficients. […] A Micromass LCT time-of-flight high-resolution mass spectrometer (Micromass Ltd., Manchester, UK) equipped with a Z-spray electrospray ionization source was used for the monitoring of CYP-selective reactions. Integrated mass chromatogram peak areas were normalized versus internal standards before comparing metabolites in different preparations. More details of the assay are available in previous publications.
# CYP2E1 = CYP2E1 (Homo sapiens, UniProt P05181); test: as above
# Protocol: as §3, §4
# CYP1A2 [5] = biological target: T2, CYP1A2 (Homo sapiens, UniProt P05177); test: biochemical
# T2 sequence (P05177 1-516): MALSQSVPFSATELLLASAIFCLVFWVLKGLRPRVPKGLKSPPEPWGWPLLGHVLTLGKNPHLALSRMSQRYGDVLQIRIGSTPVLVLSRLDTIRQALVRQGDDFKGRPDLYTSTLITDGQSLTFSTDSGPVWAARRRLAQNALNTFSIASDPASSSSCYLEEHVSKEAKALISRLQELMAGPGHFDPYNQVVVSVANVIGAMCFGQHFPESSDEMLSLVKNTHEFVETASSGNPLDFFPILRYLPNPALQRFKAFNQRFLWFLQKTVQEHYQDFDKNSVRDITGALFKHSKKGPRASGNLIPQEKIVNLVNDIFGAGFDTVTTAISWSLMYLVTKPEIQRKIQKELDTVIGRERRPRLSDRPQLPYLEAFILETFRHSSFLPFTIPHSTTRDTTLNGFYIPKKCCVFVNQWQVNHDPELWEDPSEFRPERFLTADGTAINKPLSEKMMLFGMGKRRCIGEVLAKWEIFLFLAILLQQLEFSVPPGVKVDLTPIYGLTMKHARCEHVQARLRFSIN
# Protocol: as §3, §4
# CYP3A4 [6] = biological target: CYP3A4 (Homo sapiens, UniProt P08684); test: biochemical; settings: human liver microsomes
# Protocol: as §3, §4
# [7] = ref data on file, cited from earlier work
# [8] = steady state, converted from ng/mL
# Chain of CYP3A4 (Homo sapiens, UniProt P08684) (P08684 whole entry): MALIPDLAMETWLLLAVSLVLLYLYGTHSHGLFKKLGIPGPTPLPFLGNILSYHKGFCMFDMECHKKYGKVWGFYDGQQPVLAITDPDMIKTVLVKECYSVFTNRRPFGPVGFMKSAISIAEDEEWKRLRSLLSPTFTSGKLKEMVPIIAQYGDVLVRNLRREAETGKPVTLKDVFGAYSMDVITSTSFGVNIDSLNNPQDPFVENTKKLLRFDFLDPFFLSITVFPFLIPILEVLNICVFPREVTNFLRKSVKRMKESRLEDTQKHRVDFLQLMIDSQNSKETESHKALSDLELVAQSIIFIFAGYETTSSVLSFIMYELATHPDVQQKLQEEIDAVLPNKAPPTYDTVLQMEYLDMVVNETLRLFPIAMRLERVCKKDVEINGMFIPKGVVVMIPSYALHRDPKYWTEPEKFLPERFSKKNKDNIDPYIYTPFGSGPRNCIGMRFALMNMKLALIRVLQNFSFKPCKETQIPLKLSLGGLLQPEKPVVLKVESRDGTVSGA
# Chain of CYP2E1 (P05181 whole entry): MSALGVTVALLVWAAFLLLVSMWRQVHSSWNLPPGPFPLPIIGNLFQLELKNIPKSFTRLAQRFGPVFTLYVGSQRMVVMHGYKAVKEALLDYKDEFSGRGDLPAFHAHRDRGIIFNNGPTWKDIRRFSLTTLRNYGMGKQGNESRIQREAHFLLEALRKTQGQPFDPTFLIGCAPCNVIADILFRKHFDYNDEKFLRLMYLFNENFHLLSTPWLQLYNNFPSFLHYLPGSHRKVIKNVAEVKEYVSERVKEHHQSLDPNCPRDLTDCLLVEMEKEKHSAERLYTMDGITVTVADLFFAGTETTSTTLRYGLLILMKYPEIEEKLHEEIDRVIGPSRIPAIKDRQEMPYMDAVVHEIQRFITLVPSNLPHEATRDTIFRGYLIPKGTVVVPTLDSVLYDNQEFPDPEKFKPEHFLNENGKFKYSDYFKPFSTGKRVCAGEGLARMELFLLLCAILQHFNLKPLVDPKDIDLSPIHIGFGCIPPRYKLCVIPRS
smiles,measurement,setting,value
OCCOc1ccc(/C(=C(/CCCl)c2ccccc2)c2ccccc2)cc1 [Ospemifene],average plasma half-life,"[1]; introduction, no reference given",about 20 h
same,Cav at steady state,[1]; [8],~600 nM
same,Cmin at steady state,[1]; [8],~250 nM
same,Cmax,"[1]; steady state, converted from ng/mL, read-out: mean Cmax at steady state",~2000 nM
same,Cav at steady state,[1]; steady state,227 ng/mL
same,Cmin at steady state,[1]; steady state,94 ng/mL
same,mean Cmax at steady state,[1]; steady state,785 ng/mL
same,Change in CYP2C9 activity,CYP2C9,did not cause any relevant changes
same,Change in CYP1A2 activity,CYP1A2 [2],did not cause any relevant changes
same,Induction of CYP3A4 activity,CYP3A4 [3],approximately two-fold
same,Change in CYP2C19 activity,CYP2C19,did not cause any relevant changes
same,Induction of CYPs,CYP enzyme activities,≤ 2.4 fold
same,Induction of CYP2B6 activity,CYP2B6,approximately two-fold
same,Tolerability,[4],well tolerated
same,IC50,CYP2A6,> 100 µM
same,IC50,CYP2E1,> 100 µM
same,IC50,CYP1A2 [5],> 100 µM
same,IC50,"CYP3A4 [6]; IC50, Midazolam 1′-hydroxylation, probe 0.4 μM",> 100 µM
same,IC50,"CYP3A4 [6]; IC50, Omeprazole 3-hydroxylation, probe 2 μM",37.9 µM
same,IC50,"CYP3A4 [6]; IC50, Omeprazole sulfoxidation, probe 2 μM",> 100 µM
same,IC50,"CYP3A4 [6]; IC50, Testosterone 6β-hydroxylation, probe 1 μM",> 100 µM
same,Change of serum concentrations of ospemifene,[7]; fluconazole pretreatment,increased
same,Change of serum concentrations of ospemifene,[7]; ketoconazole pretreatment,increased
same,Change of serum concentrations of ospemifene,[7]; omeprazole pretreatment,minimally changed
same,Change of serum concentrations of ospemifene,[7]; rifampicin pretreatment,reduced
